pIC50, pKi: −log10 of the molar value. Read-outs that look alike come from different tables or passages of the source.
Legend:
[1] = target: human full-length recombinant HPK1 (Homo sapiens (Human), UniProt Q92918); assay: HPK1 biochemical enzyme assay, microfluidic mobility shift assay (MSA); settings: read-out: HPK1 Enzyme Assay_Ki
[2] = system: phospho-SLP-76 (Ser376) in Jurkat cells; assay: Phospho-SLP-76 (Ser376) Homogeneous Time Resolved Fluorescence (HTRF) assay in Jurkat cells; format: cell-based; settings: Homo sapiens, read-out: SLP76 Assay_IC50
Procedure, shortened: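 Jurkat cells pre-treated 30 min with compounds (10 μM to 0.1 nM, 11-point, 0.1% DMSO), then stimulated with 200 μg/mL F(ab)2-complexed anti-CD3 (UCHT1) for 15 min at 37 °C. Lysate phospho-SLP-76 detected by HTRF after overnight antibody incubation; IC50 from four-parameter fit.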

[3] = Phospho-SLP-76 (Ser376) HTRF, anti-CD3 stimulation
[4] = mobility shift assay, 75 μM ATP, Morrison equation, tight-binding competitive inhibition
[5] = 30 min pre-treatment, anti-CD3 stimulation 15 min, HTRF

Sequence of human full-length recombinant HPK1 (Q92918 whole entry): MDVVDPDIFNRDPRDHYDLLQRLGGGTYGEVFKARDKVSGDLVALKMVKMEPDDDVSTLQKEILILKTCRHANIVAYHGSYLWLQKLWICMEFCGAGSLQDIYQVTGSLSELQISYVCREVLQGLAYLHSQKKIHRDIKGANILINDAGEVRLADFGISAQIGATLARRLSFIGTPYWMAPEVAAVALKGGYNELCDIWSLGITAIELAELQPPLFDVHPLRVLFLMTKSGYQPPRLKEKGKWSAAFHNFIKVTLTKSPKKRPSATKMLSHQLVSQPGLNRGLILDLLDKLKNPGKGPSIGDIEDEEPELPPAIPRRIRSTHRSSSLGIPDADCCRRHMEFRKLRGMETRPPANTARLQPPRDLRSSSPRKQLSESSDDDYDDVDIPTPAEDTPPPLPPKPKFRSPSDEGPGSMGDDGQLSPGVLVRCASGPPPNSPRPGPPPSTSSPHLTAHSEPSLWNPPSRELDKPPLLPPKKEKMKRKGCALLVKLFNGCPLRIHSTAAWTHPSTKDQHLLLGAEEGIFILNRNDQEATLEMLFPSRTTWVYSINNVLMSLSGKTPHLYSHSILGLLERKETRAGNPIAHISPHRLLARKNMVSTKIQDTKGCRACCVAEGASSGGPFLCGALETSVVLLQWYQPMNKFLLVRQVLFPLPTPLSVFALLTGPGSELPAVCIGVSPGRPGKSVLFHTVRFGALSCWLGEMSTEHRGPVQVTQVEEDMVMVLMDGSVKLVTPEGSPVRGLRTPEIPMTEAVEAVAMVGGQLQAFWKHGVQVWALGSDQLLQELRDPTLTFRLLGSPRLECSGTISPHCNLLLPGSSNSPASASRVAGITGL

pKi ([1]; HPK1 mobility shift assay)	pIC50 [2, 3]	pKi [1, 4]	pIC50 [2, 5]	Compound
9.80	7.26			CCCn1c(C)nnc1-c1cccc(N2Cc3c(cc(N4CCCC4(C)C)nc3CN)C2=O)n1 [Example 155]
		8.84	6.14	CNCc1nc(C2(C)CC2)cc2c1CN(c1cccc(N3C(=O)OC[C@@H]3C)n1)C2=O [Example 49, 4-[(methylamino)methyl]-6-(1-methylcyclopropyl)-2-{6-[(4S)-4-methyl-2-oxo-1,3-oxazolidin-3-yl]pyridin-2-yl}-2,3-dihydro-1H-pyrrolo[3,4-c]pyridin-1-one]
8.84	6.16			CCCn1cnnc1-c1cccc(N2Cc3c(cc(C4(C)CC4)nc3CN)C2=O)n1 [Example 90, 4-(aminomethyl)-6-(1-methylcyclopropyl)-2-[6-(4-propyl-4H-1,2,4-triazol-3-yl)pyridin-2-yl]-2,3-dihydro-1H-pyrrolo[3,4-c]pyridin-1-one]
9.28	6.62			CCC(CC)n1cnnc1-c1cccc(N2Cc3c(cc(C4CC4)nc3CNC)C2=O)n1 [Example 142, 6-cyclopropyl-4-[(methylamino)methyl]-2-{6-[4-(pentan-3-yl)-4H-1,2,4-triazol-3-yl]pyridin-2-yl}-2,3-dihydro-1H-pyrrolo[3,4-c]pyridin-1-one]
9.12	6.52			CCn1c(C)nnc1-c1cccc(N2Cc3c(cc(N4[C@H](C)CC[C@H]4C)nc3CN)C2=O)n1 [Example 168]
		9.41	6.73	CNCc1nc(C2CC2)cc2c1CN(c1cccc(-c3nncn3C(C)C)n1)C2=O [Example 5, 6-cyclopropyl-4-[(methylamino)methyl]-2-{6-[4-(propan-2-yl)-4H-1,2,4-triazol-3-yl]pyridin-2-yl}-2,3-dihydro-1H-pyrrolo[3,4-c]pyridin-1-one]
10.22	7.92			CNCc1nc(N2CCCC2(C)C)cc2c1CN(c1cccc(-c3nncn3C(C)C)n1)C2=O [Example 109, 6-(2,2-dimethylpyrrolidin-1-yl)-4-[(methylamino)methyl]-2-{6-[4-(propan-2-yl)-4H-1,2,4-triazol-3-yl]pyridin-2-yl}-2,3-dihydro-1H-pyrrolo[3,4-c]pyridin-1-one]
9.43	6.68			CN(C)c1cc2c(c(CN)n1)CN(c1cccc(N3C(=O)OC[C@@H]3CF)n1)C2=O [Example 174]
		9.89	7.41	CNCc1nc(N(C)C(C)C)cc2c1CN(c1cccc(-c3nncn3C(C)C)n1)C2=O [Example 6, 4-[(methylamino)methyl]-6-[methyl(propan-2-yl)amino]-2-{6-[4-(propan-2-yl)-4H-1,2,4-triazol-3-yl]pyridin-2-yl}-2,3-dihydro-1H-pyrrolo[3,4-c]pyridin-1-one]
9.49	7.07			CCn1cnnc1-c1cccc(N2Cc3c(cc(N4[C@H](C)CC[C@H]4C)nc3CN)C2=O)n1 [Example 110, 4-(aminomethyl)-6-[(2R,5R)-2,5-dimethylpyrrolidin-1-yl]-2-[6-(4-ethyl-4H-1,2,4-triazol-3-yl)pyridin-2-yl]-2,3-dihydro-1H-pyrrolo[3,4-c]pyridin-1-one]
9.03	6.73			CCCn1c(CC)nnc1-c1cccc(N2Cc3c(cc(N4CCC[C@H]4C)nc3CNC)C2=O)n1 [Example 175]
9.17	6.66			CCCn1c(C)nnc1-c1cccc(N2Cc3c(cc(N(C)CC)nc3CN)C2=O)n1 [Example 161]
9.96	7.24			CCN(C)c1cc2c(c(CNC)n1)CN(c1cccc(-c3nncn3CC)n1)C2=O [Example 131, 6-[ethyl(methyl)amino]-2-[6-(4-ethyl-4H-1,2,4-triazol-3-yl)pyridin-2-yl]-4-[(methylamino)methyl]-2,3-dihydro-1H-pyrrolo[3,4-c]pyridin-1-one]
		8.55	6.80	CCn1cnnc1-c1cccc(N2Cc3c(cc(N(C)C)nc3CNC)C2=O)n1 [Example 20, 6-(dimethylamino)-2-[6-(4-ethyl-4H-1,2,4-triazol-3-yl)pyridin-2-yl]-4-[(methylamino)methyl]-2,3-dihydro-1H-pyrrolo[3,4-c]pyridin-1-one]
9.02	6.29			CCN(c1cc2c(c(CNC)n1)CN(c1cccc(N3C(=O)OC[C@@H]3CF)n1)C2=O)C(C)C [Example 98, 6-[ethyl(propan-2-yl)amino]-2-{6-[(4R)-4-(fluoromethyl)-2-oxo-1,3-oxazolidin-3-yl]pyridin-2-yl}-4-[(methylamino)methyl]-2,3-dihydro-1H-pyrrolo[3,4-c]pyridin-1-one]
		9.77	6.76	CNCc1nc(N(C)C)cc2c1CN(c1cccc(N3C(=O)OC[C@@H]3CF)n1)C2=O [Example 45, 6-(dimethylamino)-2-{6-[(4R)-4-(fluoromethyl)-2-oxo-1,3-oxazolidin-3-yl]pyridin-2-yl}-4-[(methylamino)methyl]-2,3-dihydro-1H-pyrrolo[3,4-c]pyridin-1-one]
9.34	6.58			CC[C@@H](C)n1cnnc1-c1cccc(N2Cc3c(cc(C4(C)CC4)nc3CNC)C2=O)n1 [Example 139, 2-(6-{4-[(2R)-butan-2-yl]-4H-1,2,4-triazol-3-yl}pyridin-2-yl)-4-[(methylamino)methyl]-6-(1-methylcyclopropyl)-2,3-dihydro-1H-pyrrolo[3,4-c]pyridin-1-one]
		9.40	6.98	CNCc1nc(N(C)C)cc2c1CN(c1ccc(F)c(-c3cn[nH]c3C(C)C)n1)C2=O [Example 22, 6-(dimethylamino)-2-{5-fluoro-6-[5-(propan-2-yl)-1H-pyrazol-4-yl]pyridin-2-yl}-4-[(methylamino)methyl]-2,3-dihydro-1H-pyrrolo[3,4-c]pyridin-1-one]
9.14	6.51			CNCc1nc(NC(C)C)cc2c1CN(c1cccc(-c3nncn3C(C)C)n1)C2=O [Example 78, 4-[(methylamino)methyl]-6-(propan-2-ylamino)-2-{6-[4-(propan-2-yl)-4H-1,2,4-triazol-3-yl]pyridin-2-yl}-2,3-dihydro-1H-pyrrolo[3,4-c]pyridin-1-one]
10.22	7.48			CCC(CC)n1cnnc1-c1cccc(N2Cc3c(cc(N(C)C(C)C)nc3CN)C2=O)n1 [Example 150]
> 10.30	7.32			CC(C)N(C)c1cc2c(c(CN)n1)CN(c1cccc(-c3nncn3C(C)C)n1)C2=O [Example 79, 4-(aminomethyl)-6-[methyl(propan-2-yl)amino]-2-{6-[4-(propan-2-yl)-4H-1,2,4-triazol-3-yl]pyridin-2-yl}-2,3-dihydro-1H-pyrrolo[3,4-c]pyridin-1-one]
9.33	7.21			CCN(c1cc2c(c(CN)n1)CN(c1cccc(-c3nncn3C(C)C)n1)C2=O)C(C)C [Example 145, 4-(aminomethyl)-6-[ethyl(propan-2-yl)amino]-2-{6-[4-(propan-2-yl)-4H-1,2,4-triazol-3-yl]pyridin-2-yl}-2,3-dihydro-1H-pyrrolo[3,4-c]pyridin-1-one]
		9.21	6.31	CNCc1nc(N2[C@H](C)C[C@@H]2C)cc2c1CN(c1cccc(-c3nncn3C(C)C)n1)C2=O [Example 53, 6-[(2R,4S)-2,4-dimethylazetidin-1-yl]-4-[(methylamino)methyl]-2-{6-[4-(propan-2-yl)-4H-1,2,4-triazol-3-yl]pyridin-2-yl}-2,3-dihydro-1H-pyrrolo[3,4-c]pyridin-1-one]
		9.57	7.06	CCN(CC)c1cc2c(c(CNC)n1)CN(c1cccc(-c3nncn3CC)n1)C2=O [Example 9, 6-(diethylamino)-2-[6-(4-ethyl-4H-1,2,4-triazol-3-yl)pyridin-2-yl]-4-[(methylamino)methyl]-2,3-dihydro-1H-pyrrolo[3,4-c]pyridin-1-one]
		> 10.30	7.00	CC[C@@H](CC(F)(F)F)n1cnnc1-c1cccc(N2Cc3c(cc(N(C)C)nc3CNC)C2=O)n1 (single isomer, unassigned) [Example 18, 6-(dimethylamino)-4-[(methylamino)methyl]-2-(6-{4-[(3ξ)-1,1,1-trifluoropentan-3-yl]-4H-1,2,4-triazol-3-yl}pyridin-2-yl)-2,3-dihydro-1H-pyrrolo[3,4-c]pyridin-1-one]
		> 10.10	7.07	C[C@@H](CC(F)(F)F)n1cnnc1-c1cccc(N2Cc3c(cc(N(C)C)nc3CN)C2=O)n1 [Example 13, 4-(aminomethyl)-6-(dimethylamino)-2-(6-{4-[(2S)-4,4,4-trifluorobutan-2-yl]-4H-1,2,4-triazol-3-yl}pyridin-2-yl)-2,3-dihydro-1H-pyrrolo[3,4-c]pyridin-1-one]
		8.74	6.17	CNCc1nc(C(C)(C)C)cc2c1CN(c1cccc(N3C(=O)OC[C@@H]3C)n1)C2=O [Example 39, 6-tert-butyl-4-[(methylamino)methyl]-2-{6-[(4S)-4-methyl-2-oxo-1,3-oxazolidin-3-yl]pyridin-2-yl}-2,3-dihydro-1H-pyrrolo[3,4-c]pyridin-1-one]
		9.85	7.03	CNCc1nc(N)cc2c1CN(c1cccc(-c3nncn3C(C)C)n1)C2=O [Example 50, 6-amino-4-[(methylamino)methyl]-2-{6-[4-(propan-2-yl)-4H-1,2,4-triazol-3-yl]pyridin-2-yl}-2,3-dihydro-1H-pyrrolo[3,4-c]pyridin-1-one]

Compound	pKi ([1]; HPK1 mobility shift assay)	pIC50 [2, 3]	pKi [1, 4]	pIC50 [2, 5]
CNCc1nc(C)cc2c1CN(c1cccc(-c3nncn3C(C)C)n1)C2=O [Example 47, 6-methyl-4-[(methylamino)methyl]-2-{6-[4-(propan-2-yl)-4H-1,2,4-triazol-3-yl]pyridin-2-yl}-2,3-dihydro-1H-pyrrolo[3,4-c]pyridin-1-one]			8.15	5.82

Reference: US11142525B2 (Pfizer Inc., priority 2018, dated 2021)
